Experimental data taken from PubChem BioAssay AID330 (DTP/NCI, 2004).
Toxic doses and inconclusive results are not listed.

System: P388 leukemia ip, CD2F1 mice, survival T/C
Experiment: NCI In Vivo Anticancer Drug Screen. Data for tumor model P388 Leukemia (intraperitoneal) in CD2F1 (CDF1) mice
Settings: endpoint: median survival time, higher = longer survival
Procedure, shortened: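 Mice carrying the transplanted tumor received test compound or vehicle. Survival was recorded in each group, and the value is the treated-group measurement divided by that of the vehicle-treated control group.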

[1] = dose: 50.0 mg/kg/injection, schedule: Q01DX009 (ip), vehicle: saline with Tween-80
[2] = dose: 100.0 mg/kg/injection, schedule: Q01DX009 (ip), vehicle: saline with Tween-80

`CC(C)C(C#N)(C(=O)O)C(C)C` was tested, and the T/C [1] was 95 % of control and the T/C [2] was 92 % of control.
In the case of `O=C1CC(c2ccccc2)NCCC2CN(CCCN1)C(=O)c1ccccc12` (centres undefined), the T/C (dose: 16.25 mg/kg/injection, schedule: Q01DX005 (ip), vehicle: Klucel (hydroxypropylcellulose) (HPC)) is reported as 100 % of control, the T/C (dose: 32.5 mg/kg/injection, schedule: Q01DX005 (ip), vehicle: Klucel (hydroxypropylcellulose) (HPC)) is reported as 100 % of control and the T/C (dose: 65.0 mg/kg/injection, schedule: Q01DX005 (ip), vehicle: Klucel (hydroxypropylcellulose) (HPC)) is reported as 100 % of control. The T/C (dose: 130.0 mg/kg/injection, schedule: Q01DX005 (ip), vehicle: Klucel (hydroxypropylcellulose) (HPC)) was 100 % of control.
`C=CC(=O)NCNC(=O)C=C` was tested, and the T/C [2] was 172 % of control, the T/C (dose: 132.0 mg/kg/injection, schedule: Q04DX003 (ip), vehicle: saline with Tween-80) was 118 % of control and the T/C (dose: 200.0 mg/kg/injection, schedule: Q04DX003 (ip), vehicle: saline sonified) was 159 % of control. The T/C (dose: 300.0 mg/kg/injection, schedule: Q04DX003 (ip), vehicle: saline with Tween-80) was 181 % of control.
With `O=C(O)CCC/C=N/O` the T/C (dose: 100.0 mg/kg/injection, schedule: Q04DX003 (ip), vehicle: Klucel (hydroxypropylcellulose) (HPC)) was 98 % of control, the T/C (dose: 200.0 mg/kg/injection, schedule: Q04DX003 (ip), vehicle: Klucel (hydroxypropylcellulose) (HPC)) was 99 % of control and the T/C (dose: 400.0 mg/kg/injection, schedule: Q04DX003 (ip), vehicle: Klucel (hydroxypropylcellulose) (HPC)) was 102 % of control.
In the case of `CN(C)C(=O)C1SCCCS1`, the T/C (dose: 100.0 mg/kg/injection, schedule: Q04DX002 (ip), vehicle: saline with Tween-80) is reported as 107 % of control, the T/C (dose: 200.0 mg/kg/injection, schedule: Q04DX002 (ip), vehicle: saline with Tween-80) is reported as 108 % of control and the T/C (dose: 400.0 mg/kg/injection, schedule: Q04DX002 (ip), vehicle: saline with Tween-80) is reported as 108 % of control.
With `C=CC(C)(C)/C=C/C=O` the T/C (dose: 60.0 mg/kg/injection, schedule: Q01DX005 (ip), vehicle: saline with Tween-80) was 97 % of control, the T/C (dose: 120.0 mg/kg/injection, schedule: Q01DX005 (ip), vehicle: saline with Tween-80) was 92 % of control and the T/C (dose: 240.0 mg/kg/injection, schedule: Q01DX005 (ip), vehicle: saline with Tween-80) was 104 % of control.
In the case of `O=C(Nc1c(Cl)cccc1Cl)OCc1ccc2c(c1)OCO2`, the T/C (dose: 60.0 mg/kg/injection, schedule: Q01DX005 (ip), vehicle: Klucel (hydroxypropylcellulose) (HPC)) is reported as 92 % of control, the T/C (dose: 120.0 mg/kg/injection, schedule: Q01DX005 (ip), vehicle: Klucel (hydroxypropylcellulose) (HPC)) is reported as 90 % of control and the T/C (dose: 240.0 mg/kg/injection, schedule: Q01DX005 (ip), vehicle: Klucel (hydroxypropylcellulose) (HPC)) is reported as 90 % of control.
With `CCCCCCC(CCCCCC)=NO` the T/C (dose: 50.0 mg/kg/injection, schedule: Q01DX005 (ip), vehicle: saline with Tween-80) was 95 % of control, the T/C (dose: 100.0 mg/kg/injection, schedule: Q01DX005 (ip), vehicle: saline with Tween-80) was 113 % of control and the T/C (dose: 200.0 mg/kg/injection, schedule: Q01DX005 (ip), vehicle: saline with Tween-80) was 104 % of control.
In the case of `CCOC(=O)c1ccc(S(C)(=O)=O)cc1`, the T/C (dose: 25.0 mg/kg/injection, schedule: Q01DX009 (ip), vehicle: saline with Tween-80) is reported as 104 % of control, the T/C [1] is reported as 95 % of control and the T/C [2] is reported as 100 % of control. For the same compound, the T/C (dose: 200.0 mg/kg/injection, schedule: Q01DX009 (ip), vehicle: saline with Tween-80) was 100 % of control.
